Measured values as given in PubChem BioAssay AID330 (DTP/NCI, 2004).
“And” between values parts separate entries of the source, which are not always exact repeats. Equal entries are not always repeated. Inconclusive results and toxic doses are left out. Rule for the calls: active = survival T/C of 150% or more; inactive = T/C below 125% in these data.

System: P388 leukemia ip, CD2F1 mice, survival T/C
Experiment: NCI In Vivo Anticancer Drug Screen. Data for tumor model P388 Leukemia (intraperitoneal) in CD2F1 (CDF1) mice
Conditions: endpoint: median survival time, higher = longer survival
Method in brief: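 Mice carrying the transplanted tumor received test compound or vehicle. Survival was recorded in each group, and the value is the treated-group measurement divided by that of the vehicle-treated control group.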

[1] = dose: 50.0 mg/kg/injection, schedule: Q01DX009 (ip), vehicle: saline with Tween-80
[2] = dose: 100.0 mg/kg/injection, schedule: Q01DX009 (ip), vehicle: saline with Tween-80
[3] = dose: 200.0 mg/kg/injection, schedule: Q01DX009 (ip), vehicle: saline with Tween-80
[4] = dose: 60.0 mg/kg/injection, schedule: Q01DX005 (ip), vehicle: saline with Tween-80
[5] = dose: 120.0 mg/kg/injection, schedule: Q01DX005 (ip), vehicle: saline with Tween-80
[6] = dose: 240.0 mg/kg/injection, schedule: Q01DX005 (ip), vehicle: saline with Tween-80
[7] = dose: 200.0 mg/kg/injection, schedule: Q01DX001 (ip), vehicle: saline
[8] = dose: 400.0 mg/kg/injection, schedule: Q01DX001 (ip), vehicle: saline
[9] = dose: 100.0 mg/kg/injection, schedule: Q04DX003 (ip), vehicle: saline with Tween-80
[10] = dose: 200.0 mg/kg/injection, schedule: Q04DX003 (ip), vehicle: saline with Tween-80
[11] = dose: 400.0 mg/kg/injection, schedule: Q04DX003 (ip), vehicle: saline with Tween-80
[12] = dose: 50.0 mg/kg/injection, schedule: Q01DX005 (ip), vehicle: saline with Tween-80
[13] = dose: 100.0 mg/kg/injection, schedule: Q01DX005 (ip), vehicle: saline with Tween-80
[14] = dose: 200.0 mg/kg/injection, schedule: Q01DX005 (ip), vehicle: saline with Tween-80
[15] = dose: 15.0 mg/kg/injection, schedule: Q01DX005 (ip), vehicle: saline with Tween-80
[16] = dose: 30.0 mg/kg/injection, schedule: Q01DX005 (ip), vehicle: saline with Tween-80
[17] = dose: 100.0 mg/kg/injection, schedule: Q01DX001 (ip), vehicle: Klucel (hydroxypropylcellulose) (HPC)
[18] = dose: 200.0 mg/kg/injection, schedule: Q01DX001 (ip), vehicle: Klucel (hydroxypropylcellulose) (HPC)
[19] = dose: 50.0 mg/kg/injection, schedule: Q01DX005 (ip), vehicle: Klucel (hydroxypropylcellulose) (HPC)
[20] = dose: 100.0 mg/kg/injection, schedule: Q01DX005 (ip), vehicle: Klucel (hydroxypropylcellulose) (HPC)
[21] = dose: 100.0 mg/kg/injection, schedule: Q04DX002 (ip), vehicle: Klucel (hydroxypropylcellulose) (HPC)
[22] = dose: 200.0 mg/kg/injection, schedule: Q04DX002 (ip), vehicle: Klucel (hydroxypropylcellulose) (HPC)
[23] = dose: 400.0 mg/kg/injection, schedule: Q04DX002 (ip), vehicle: Klucel (hydroxypropylcellulose) (HPC)

Measured: T/C

CN1C(=O)C2CC(O)C(SC3CC4C(=O)N(C)C(=O)C4CC3O)CC2C1=O (stereo unspecified)
inactive: dose: 25.0 mg/kg/injection, schedule: Q01DX009 (ip), vehicle: water 98 % of control | dose: 50.0 mg/kg/injection, schedule: Q01DX009 (ip), vehicle: water 100 % of control | dose: 100.0 mg/kg/injection, schedule: Q01DX009 (ip), vehicle: water 98 % of control | dose: 200.0 mg/kg/injection, schedule: Q01DX009 (ip), vehicle: water 98 % of control

COc1ccc2c(c1)NC(=O)Cn1nnnc1-2
inactive: dose: 25.0 mg/kg/injection, schedule: Q04DX002 (ip), vehicle: saline with Tween-80 96 % of control | dose: 50.0 mg/kg/injection, schedule: Q04DX002 (ip), vehicle: saline with Tween-80 91 % of control | dose: 100.0 mg/kg/injection, schedule: Q04DX002 (ip), vehicle: saline with Tween-80 96 % of control | dose: 400.0 mg/kg/injection, schedule: Q04DX002 (ip), vehicle: saline with Tween-80 93 % of control

CC1=NN(C(=O)c2ccncc2)C(=O)C1N=Nc1ccc(S(=O)(=O)Nc2nccs2)cc1 (stereo unspecified)
inactive: [1] 102 % of control | [2] 97 % of control | [3] 96 % of control

CCC(c1ccc(OC)cc1)C(CC)c1ccc(O)c(CN(C)C)c1 (stereo unspecified)
inactive: [4] 94 % of control | [5] 92 % of control | [6] 92 % of control

O=C(CCl)NNC1=Nc2ccc(Cl)cc2SC1
inactive: [4] 101 % of control | [5] 104 % of control | [6] 93 % of control

O=C(N1CCC(CCN2CCCC2)CC1)C(O)(c1ccccc1)c1ccccc1
inactive: dose: 25.0 mg/kg/injection, schedule: Q04DX002 (ip), vehicle: saline 107 % of control | dose: 50.0 mg/kg/injection, schedule: Q04DX002 (ip), vehicle: saline 107 % of control | dose: 100.0 mg/kg/injection, schedule: Q04DX002 (ip), vehicle: saline 106 % of control and 97 % of control

CN(CC[n+]1cccc(C(N)=O)c1)N=O
inactive: dose: 100.0 mg/kg/injection, schedule: Q01DX001 (ip), vehicle: saline 108 % of control | [7] 100 % of control | [8] 107 % of control

CCCCCn1c(Cl)c(/C=N\Nc2cccc([N+](=O)[O-])c2)c2ccccc21
inactive: [9] 100 % of control | [10] 91 % of control | [11] 90 % of control

O=C(c1ccc(O)cc1)c1ccc(O)cc1O
inactive: dose: 66.0 mg/kg/injection, schedule: Q01DX001 (ip), vehicle: saline 100 % of control | dose: 150.0 mg/kg/injection, schedule: Q01DX001 (ip), vehicle: saline 88 % of control | [7] 100 % of control | [8] 100 % of control

O=C(O)Cc1csc(=S)n1Cc1ccccc1
inactive: [12] 100 % of control | [13] 102 % of control | [14] 90 % of control

COC(=O)/C=C1/Nc2c(n(C)c(=O)n(C)c2=O)NC1=O
inactive: dose: 100.0 mg/kg/injection, schedule: Q04DX003 (ip), vehicle: saline 107 % of control | dose: 200.0 mg/kg/injection, schedule: Q04DX003 (ip), vehicle: saline 94 % of control | dose: 400.0 mg/kg/injection, schedule: Q04DX003 (ip), vehicle: saline 99 % of control

CC1CC(N=Cc2ccc3c(c2)OCO3)CC(C)(C)C1 (stereo unspecified)
inactive: [12] 103 % of control | [13] 96 % of control | [14] 97 % of control

CC1CCC(n2cnc3c(=S)nc[nH]c32)O1 (stereo unspecified)
inactive: dose: 66.0 mg/kg/injection, schedule: Q01DX009 (ip), vehicle: saline with Tween-80 104 % of control | [2] 113 % of control | [9] 109 % of control | dose: 150.0 mg/kg/injection, schedule: Q01DX009 (ip), vehicle: saline with Tween-80 90 % of control | [3] 100 % of control | [10] 118 % of control | [11] 118 % of control

c1ccc(C2CC(c3ccc(C4=NN(c5ccccc5)C(c5ccccc5)C4)cc3)=NN2c2ccccc2)cc1 (stereo unspecified)
inactive: dose: 25.0 mg/kg/injection, schedule: Q04DX003 (ip), vehicle: saline with Tween-80 102 % of control | dose: 50.0 mg/kg/injection, schedule: Q04DX003 (ip), vehicle: saline with Tween-80 91 % of control | [9] 87 % of control | [10] 89 % of control | [11] 100 % of control

CCOc1c2c(nn(C)c1=O)Oc1ccccc1N2CCCN1CCOCC1
inactive: [15] 96 % of control | [16] 90 % of control | [4] 104 % of control and 91 % of control

Oc1ccccc1/C=N/Nc1nnnn1-c1ccccc1
inactive: [17] 102 % of control | [18] 102 % of control | dose: 400.0 mg/kg/injection, schedule: Q01DX001 (ip), vehicle: Klucel (hydroxypropylcellulose) (HPC) 98 % of control

CN1C(C)(C)CC(O)(C(=O)O)CC1(C)C
inactive: dose: 50.0 mg/kg/injection, schedule: Q01DX005 (ip), vehicle: saline 94 % of control | dose: 100.0 mg/kg/injection, schedule: Q01DX005 (ip), vehicle: saline 91 % of control | dose: 200.0 mg/kg/injection, schedule: Q01DX005 (ip), vehicle: saline 87 % of control

CC(C)C1CC(O)C(C)C(CN2CCCCC2)C1 (stereo unspecified)
inactive: [19] 105 % of control | [20] 104 % of control

CCC(c1ccc(OC)cc1)C(NC(=S)Nc1ccc(Cl)cc1)c1ccc(OC)cc1 (stereo unspecified)
inactive: dose: 100.0 mg/kg/injection, schedule: Q01DX001 (ip), vehicle: saline with Tween-80 90 % of control | dose: 200.0 mg/kg/injection, schedule: Q01DX001 (ip), vehicle: saline with Tween-80 90 % of control | dose: 400.0 mg/kg/injection, schedule: Q01DX001 (ip), vehicle: saline with Tween-80 109 % of control

COc1ccc(Cc2coc3ccccc3c2=O)cc1
inactive: [4] 102 % of control | [5] 92 % of control | [6] 100 % of control

CC1SC(N)=NN=C1c1c(O)c2ccccc2oc1=O (stereo unspecified)
inactive: [21] 103 % of control | [22] 98 % of control | [23] 97 % of control

O=C(NC(=O)C(F)(F)C(F)(F)C(F)(F)F)Nc1cccc(F)c1
inactive: [1] 100 % of control | [2] 100 % of control | [3] 100 % of control

CCOC(=O)c1ccc(NC(=O)CS)cc1
inactive: dose: 25.0 mg/kg/injection, schedule: Q01DX009 (ip), vehicle: saline with Tween-80 98 % of control | [1] 99 % of control | [2] 102 % of control | [3] 108 % of control

O=c1[nH]c(-c2cccc(-c3nnc(-c4ccccc4Cl)c(=O)[nH]3)c2)nnc1-c1ccccc1Cl
inactive: [21] 100 % of control | [22] 100 % of control | [23] 96 % of control

CC(=O)c1cccc(NC(=O)C2C(=O)C(=O)N(c3cccc(C(C)=O)c3)C2=O)c1 (stereo unspecified)
inactive: dose: 50.0 mg/kg/injection, schedule: Q01DX009 (ip), vehicle: Klucel (hydroxypropylcellulose) (HPC) 91 % of control | dose: 100.0 mg/kg/injection, schedule: Q01DX009 (ip), vehicle: Klucel (hydroxypropylcellulose) (HPC) 104 % of control | dose: 200.0 mg/kg/injection, schedule: Q01DX009 (ip), vehicle: Klucel (hydroxypropylcellulose) (HPC) 101 % of control

CSC(=S)n1nc(-c2cccs2)c(N=Nc2ccccc2)c1C(F)(F)F
inactive: dose: 7.5 mg/kg/injection, schedule: Q01DX005 (ip), vehicle: saline with Tween-80 102 % of control | [15] 112 % of control | [16] 112 % of control

O=C1OC(=O)C2=C1C1c3ccccc3C2c2ccccc21
inactive: dose: 12.5 mg/kg/injection, schedule: Q01DX005 (ip), vehicle: Klucel (hydroxypropylcellulose) (HPC) 100 % of control | dose: 25.0 mg/kg/injection, schedule: Q01DX005 (ip), vehicle: Klucel (hydroxypropylcellulose) (HPC) 109 % of control | [19] 108 % of control and 110 % of control | [20] 106 % of control

Fc1ccc2[nH]c3c(c2c1)-c1ncncc1CC3
inactive: [19] 101 % of control | [20] 100 % of control | dose: 200.0 mg/kg/injection, schedule: Q01DX005 (ip), vehicle: Klucel (hydroxypropylcellulose) (HPC) 101 % of control

O=c1[nH]c(=O)c2c(Br)[nH]nc2[nH]1
inactive: [17] 110 % of control | [18] 103 % of control
